Results reported in patent US7105502B2, “Nitric oxide-releasing imidate and thioimidate diazeniumdiolates” (The United States of America as represented by the …, priority 2001, dated 2006).

Tests used:
[1] = Detection of NO released in solution, headspace swept with argon into a chemiluminescence detector; type: physicochemical
Experimental: The nitrites and all solvents were purchased from Aldrich Chemical Company (Milwaukee, Wis.). Nitric oxide was obtained form Matheson Gas Products (Montgomeryville, Pa.). The ^1H NMR and ^13C NMR spectra were recorded in D2O (^1H at 300 MHz; ^13C at 75 MHz). Ultraviolet spectra (10 mM NaOH unless otherwise specified) and kinetic information were obtained on a Hewlett Packard 8452A UV-visible spectrophotometer with a thermostated cell holder. Infrared data was recorded on a Perkin-Elmer 1430 infrared spectrometer. Nitric oxide was measured with a Thermal Energy Analyzer model 502A (Thermedics, Inc., Woburn, Mass.). Melting points are uncorrected. Elemental analyses were performed by Atlantic Microlab, Inc. (Norcross, Ga.).
(§1) For the detection of NO, selected compounds from the examples were dissolved in either pH 7.4 buffer or 10% H2SO4, and the headspace was swept with argon into a chemiluminescence detector. The detection of nitrous oxide (N2O), formed from the dimerization and dehydration of HNO, was done by gas chromatography in both pH 7.4 buffer and 0.1 M HCl.

[2] = Detection of nitrous oxide (N2O) by gas chromatography; type: physicochemical; settings: acid (0.1 M HCl)
Experimental: as §1

Substance | NO (mole gas/mole cmpd) ([1]; acid (10% H2SO4)) | NO (mole gas/mole cmpd) ([1]; pH 7.4 buffer) | N2O (mole gas/mole cmpd) [2] [mole gas/mole cmpd]
1-naphthyl diazeniumdiolate amide [Example 9] | 0.02 | 0.16 | 
benzyl diazeniumdiolate methoxy imidate [Example 2] | 0.46 | 0.36 | 1.52
